Results: ChEMBL document CHEMBL1201862, “PubChem BioAssay data set” (2004)
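96-well plates; 48 h exposure; 5 concentrations. Endpoints by linear interpolation between flanking doses. Not reached: highest tested concentration assigned. GI50 marks 50% less growth.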 Active and inactive are the calls of the source. Cut-off read from the data, not from the text of the source: active = GI50 up to about 1.1 µM and inactive = higher.

Experiments:
Assay in all cases: NCI tumour cell line growth inhibition, 48 h
786-0 = test system: 786-0
A498 = test system: A498
A549 = test system: A549
ACHN = test system: ACHN
BT-549 = test system: BT-549
CAKI-1 = test system: CAKI-1
CCRF-CEM = test system: CCRF-CEM
COLO 205 = test system: COLO 205
DLD-1 = test system: DLD-1
DMS-114 = test system: DMS-114
DMS-273 = test system: DMS-273
DU-145 = test system: DU-145
EKVX = test system: EKVX
HCC 2998 = test system: HCC 2998
HCT-116 = test system: HCT-116
HCT-15 = test system: HCT-15
HL-60 = test system: HL-60
HOP-18 = test system: HOP-18
HOP-62 = test system: HOP-62
HOP-92 = test system: HOP-92
HT-29 = test system: HT-29
Hs-578T = test system: Hs-578T
IGROV-1 = test system: IGROV-1
K562 = test system: K562
KM-20L2 = test system: KM-20L2
KM12 = test system: KM12
LOX IMVI = test system: LOX IMVI
LXFL 529 = test system: LXFL 529
M14 = test system: M14
M19-MEL = test system: M19-MEL
MCF7 = test system: MCF7
MDA-MB-231 = test system: MDA-MB-231
MDA-MB-435 = test system: MDA-MB-435
MDA-N = test system: MDA-N
MOLT-4 = test system: MOLT-4
Malme-3M = test system: Malme-3M
NCI-H226 = test system: NCI-H226
NCI-H23 = test system: NCI-H23
NCI-H460 = test system: NCI-H460
NCI-H522 = test system: NCI-H522
NCI/ADR-RES = test system: NCI/ADR-RES
OVCAR-3 = test system: OVCAR-3
OVCAR-4 = test system: OVCAR-4
OVCAR-5 = test system: OVCAR-5
OVCAR-8 = test system: OVCAR-8
PC-3 = test system: PC-3
RPMI-8226 = test system: RPMI-8226
RXF 393 = test system: RXF 393
RXF 631 = test system: RXF 631
SF-268 = test system: SF-268
SF-295 = test system: SF-295
SF-539 = test system: SF-539
SK-MEL-28 = test system: SK-MEL-28
SK-MEL-2 = test system: SK-MEL-2
SK-MEL-5 = test system: SK-MEL-5
SK-OV-3 = test system: SK-OV-3
SN12C = test system: SN12C
SNB-19 = test system: SNB-19
SNB-75 = test system: SNB-75
SNB-78 = test system: SNB-78
SR = test system: SR
SW-620 = test system: SW-620
T47D = test system: T47D
TK-10 = test system: TK-10
U-251 = test system: U-251
UACC-257 = test system: UACC-257
UACC-62 = test system: UACC-62
UO-31 = test system: UO-31
XF498 = test system: XF498

SMILES: COc1ccc(C(=O)c2cc(OC)c(OC)c(OC)c2)cc1
- GI50 (786-0): 0.169 µM (active)
- GI50 (A498): 0.0713 µM (active)
- GI50 (A549): 0.106 µM (active)
- GI50 (ACHN): 1.29 µM (inactive)
- GI50 (BT-549): 0.923 µM (active)
- GI50 (CAKI-1): 0.0738 µM (active)
- GI50 (CCRF-CEM): 0.0879 µM (active)
- GI50 (COLO 205): 0.0706 µM (active)
- GI50 (DLD-1): 0.204 µM (active)
- GI50 (DMS-114): 0.285 µM (active)
- GI50 (DMS-273): 0.0863 µM (active)
- GI50 (DU-145): 0.205 µM (active)
- GI50 (EKVX): 0.484 µM (active)
- GI50 (HCC 2998): 0.321 µM (active)
- GI50 (HCT-116): 0.0703 µM (active)
- GI50 (HCT-15): 0.0566 µM
- GI50 (HL-60): 0.031 µM (active)
- GI50 (HOP-18): > 100 µM (inactive)
- GI50 (HOP-62): 0.7 µM (active)
- GI50 (HOP-92): 2.41 µM (inactive)
- GI50 (HT-29): 0.0372 µM (active)
- GI50 (Hs-578T): 0.111 µM (active)
- GI50 (IGROV-1): 0.219 µM (active)
- GI50 (K562): 0.0392 µM (active)
- GI50 (KM-20L2): 0.0715 µM (active)
- GI50 (KM12): 0.0481 µM (active)
- GI50 (LOX IMVI): 0.147 µM (active)
- GI50 (LXFL 529): 0.221 µM (active)
- GI50 (M14): 0.0753 µM (active)
- GI50 (M19-MEL): 0.893 µM (active)
- GI50 (MCF7): 0.0991 µM (active)
- GI50 (MDA-MB-231): 0.0881 µM (active)
- GI50 (MDA-MB-435): 0.0197 µM (active)
- GI50 (MDA-N): 0.016 µM (active)
- GI50 (MOLT-4): 0.0715 µM (active)
- GI50 (Malme-3M): 0.0586 µM (active)
- GI50 (NCI-H226): 1.11 µM (active)
- GI50 (NCI-H23): 0.324 µM (active)
- GI50 (NCI-H460): 0.0735 µM (active)
- GI50 (NCI-H522): 0.0715 µM (active)
- GI50 (NCI/ADR-RES): 0.054 µM (active)
- GI50 (OVCAR-3): 0.0769 µM (active)
- GI50 (OVCAR-4): 28.6 µM (inactive)
- GI50 (OVCAR-5): 5.98 µM (inactive)
- GI50 (OVCAR-8): 0.382 µM (active)
- GI50 (PC-3): 0.0775 µM (active)
- GI50 (RPMI-8226): 0.169 µM (active)
- GI50 (RXF 393): 0.331 µM (active)
- GI50 (RXF 631): 0.184 µM (active)
- GI50 (SF-268): 0.838 µM (active)
- GI50 (SF-295): 0.0399 µM (active)
- GI50 (SF-539): 0.152 µM (active)
- GI50 (SK-MEL-28): 0.733 µM (active)
- GI50 (SK-MEL-2): 0.342 µM (active)
- GI50 (SK-MEL-5): 0.0702 µM (active)
- GI50 (SK-OV-3): 1.14 µM (inactive)
- GI50 (SN12C): 0.705 µM (active)
- GI50 (SNB-19): 0.199 µM (active)
- GI50 (SNB-75): 0.0726 µM (active)
- GI50 (SNB-78): 0.194 µM (active)
- GI50 (SR): 0.0581 µM (active)
- GI50 (SW-620): 0.0556 µM (active)
- GI50 (T47D): 27.5 µM (inactive)
- GI50 (TK-10): 4.11 µM (inactive)
- GI50 (U-251): 0.206 µM (active)
- GI50 (UACC-257): 0.769 µM (active)
- GI50 (UACC-62): 0.0501 µM (active)
- GI50 (UO-31): 1 µM (active)
- GI50 (XF498): 0.432 µM (active)
